This passage reports inhibition results from ChEMBL document CHEMBL3132769, “Fragment growing to retain or alter the selectivity of anchored kinase hinge-binding fragments” (Medchemcomm, 2014).

Each structure is given as a SMILES string.

The target of assay [1] is Fibroblast growth factor receptor 2 (Homo sapiens) (UniProt P21802). Kind of assay: Inhibition of human FGFR2 catalytic domain expressed in baculovirus assessed as substrate phosphorylation using fluorescence-labelled peptides as substrate at 2 uM after 90 mins by microfluidic peptide phosphorylation assay.
Sequence of Fibroblast growth factor receptor 2 (Homo sapiens) (P21802 22-821 limits assumed): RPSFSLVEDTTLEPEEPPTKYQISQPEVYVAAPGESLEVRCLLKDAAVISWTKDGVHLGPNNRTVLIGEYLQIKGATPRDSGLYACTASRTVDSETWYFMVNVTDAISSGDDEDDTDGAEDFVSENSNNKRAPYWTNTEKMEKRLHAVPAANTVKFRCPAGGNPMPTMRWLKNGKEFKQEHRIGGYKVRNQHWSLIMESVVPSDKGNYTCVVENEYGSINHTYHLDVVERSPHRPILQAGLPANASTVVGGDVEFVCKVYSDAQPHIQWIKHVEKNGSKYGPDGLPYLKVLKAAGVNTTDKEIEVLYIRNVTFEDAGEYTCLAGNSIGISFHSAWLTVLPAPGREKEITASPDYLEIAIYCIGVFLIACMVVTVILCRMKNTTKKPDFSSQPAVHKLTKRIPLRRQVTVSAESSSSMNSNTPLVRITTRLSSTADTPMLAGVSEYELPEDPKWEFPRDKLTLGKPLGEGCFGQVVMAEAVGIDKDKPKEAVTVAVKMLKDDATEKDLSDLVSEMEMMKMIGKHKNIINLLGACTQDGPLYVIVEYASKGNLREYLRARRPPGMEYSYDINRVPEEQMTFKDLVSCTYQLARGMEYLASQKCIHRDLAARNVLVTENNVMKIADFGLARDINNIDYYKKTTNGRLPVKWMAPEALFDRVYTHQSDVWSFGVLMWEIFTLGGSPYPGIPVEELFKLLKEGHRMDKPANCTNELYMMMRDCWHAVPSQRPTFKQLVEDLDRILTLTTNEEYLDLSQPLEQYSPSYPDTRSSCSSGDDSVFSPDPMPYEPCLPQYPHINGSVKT
In assay [2] the target is Insulin-like growth factor 1 receptor (Homo sapiens) (UniProt P08069). Kind of assay: Inhibition of human IGF1R catalytic domain expressed in baculovirus assessed as substrate phosphorylation using fluorescence-labelled peptides as substrate at 2 uM after 90 mins by microfluidic peptide phosphorylation assay.
Assay [3] addresses T1, Serine/threonine-protein kinase BRSK2 (Homo sapiens) (UniProt Q8IWQ3).
T1 sequence (whole entry): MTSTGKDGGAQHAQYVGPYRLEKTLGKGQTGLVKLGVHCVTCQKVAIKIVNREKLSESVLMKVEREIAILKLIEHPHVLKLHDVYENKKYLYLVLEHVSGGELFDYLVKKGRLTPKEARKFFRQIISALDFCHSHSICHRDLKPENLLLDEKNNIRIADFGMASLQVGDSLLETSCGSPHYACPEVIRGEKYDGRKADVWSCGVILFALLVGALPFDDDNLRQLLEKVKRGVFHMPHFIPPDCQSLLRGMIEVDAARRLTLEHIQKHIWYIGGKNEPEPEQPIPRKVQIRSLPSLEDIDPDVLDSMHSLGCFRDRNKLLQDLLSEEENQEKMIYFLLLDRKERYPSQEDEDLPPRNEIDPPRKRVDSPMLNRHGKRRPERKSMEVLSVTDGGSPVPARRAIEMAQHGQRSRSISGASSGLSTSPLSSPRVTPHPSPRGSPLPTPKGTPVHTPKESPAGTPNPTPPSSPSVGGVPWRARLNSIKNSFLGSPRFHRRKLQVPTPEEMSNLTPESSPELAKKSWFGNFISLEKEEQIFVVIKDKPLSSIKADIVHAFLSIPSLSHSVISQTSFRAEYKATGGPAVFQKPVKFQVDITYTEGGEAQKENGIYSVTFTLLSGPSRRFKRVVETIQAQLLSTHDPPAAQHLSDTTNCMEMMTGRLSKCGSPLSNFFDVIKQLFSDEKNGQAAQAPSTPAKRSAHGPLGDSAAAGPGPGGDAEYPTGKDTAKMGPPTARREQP
Kind of assay: Inhibition of human truncated BRSK2 expressed in baculovirus assessed as substrate phosphorylation using fluorescence-labelled peptides as substrate at 0.1 uM after 90 mins by microfluidic peptide phosphorylation assay.

The target of assay [4] is Calcium/calmodulin-dependent protein kinase type II subunit delta (Homo sapiens) (UniProt Q13557). As to conditions: 0.1 uM.
Sequence of Calcium/calmodulin-dependent protein kinase type II subunit delta (Homo sapiens) (Q13557 whole entry): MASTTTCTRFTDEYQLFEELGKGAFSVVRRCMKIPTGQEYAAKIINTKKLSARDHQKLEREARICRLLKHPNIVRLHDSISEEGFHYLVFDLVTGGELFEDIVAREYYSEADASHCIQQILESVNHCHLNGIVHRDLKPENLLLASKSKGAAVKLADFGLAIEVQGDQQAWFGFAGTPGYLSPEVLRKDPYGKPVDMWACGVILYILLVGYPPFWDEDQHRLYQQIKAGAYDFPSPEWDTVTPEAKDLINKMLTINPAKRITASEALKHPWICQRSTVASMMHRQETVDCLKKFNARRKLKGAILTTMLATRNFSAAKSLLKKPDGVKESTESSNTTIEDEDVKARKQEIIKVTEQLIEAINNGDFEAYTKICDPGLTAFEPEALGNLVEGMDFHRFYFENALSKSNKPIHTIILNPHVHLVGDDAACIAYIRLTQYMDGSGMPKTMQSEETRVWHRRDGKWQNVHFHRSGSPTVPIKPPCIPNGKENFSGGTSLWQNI
Description: Inhibition of human full length CAMK2D expressed in baculovirus assessed as substrate phosphorylation using fluorescence-labelled peptides as substrate at 0.1 uM after 90 mins by microfluidic peptide phosphorylation assay
The target of assay [5] is Mitogen-activated protein kinase 3 (Homo sapiens) (UniProt P27361). Kind of assay: Inhibition of human full length ERK1 expressed in Escherichia coli cell assessed as substrate phosphorylation using fluorescence-labelled peptides as substrate at 0.2 uM after 90 mins by microfluidic peptide phosphorylation assay.
Sequence of Mitogen-activated protein kinase 3 (Homo sapiens) (P27361 whole entry, the tested form may be a part): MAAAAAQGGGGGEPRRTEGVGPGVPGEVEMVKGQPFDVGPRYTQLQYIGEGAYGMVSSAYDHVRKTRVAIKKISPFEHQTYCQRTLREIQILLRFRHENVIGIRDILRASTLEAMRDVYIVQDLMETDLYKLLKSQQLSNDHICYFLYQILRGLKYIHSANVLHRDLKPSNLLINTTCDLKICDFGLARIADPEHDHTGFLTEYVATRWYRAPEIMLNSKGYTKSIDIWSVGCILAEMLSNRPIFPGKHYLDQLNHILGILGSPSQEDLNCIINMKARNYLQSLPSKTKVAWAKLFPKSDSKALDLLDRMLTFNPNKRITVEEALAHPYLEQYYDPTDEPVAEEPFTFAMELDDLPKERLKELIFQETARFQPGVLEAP
For assay [6], the target named is Tyrosine-protein kinase HCK (Homo sapiens) (UniProt P08631). Kind of assay: Inhibition of human HCK catalytic domain expressed in baculovirus assessed as substrate phosphorylation using fluorescence-labelled peptides as substrate at 0.06 uM after 90 mins by microfluidic peptide phosphorylation assay.
Sequence of Tyrosine-protein kinase HCK (Homo sapiens) (P08631 2-526 limits assumed): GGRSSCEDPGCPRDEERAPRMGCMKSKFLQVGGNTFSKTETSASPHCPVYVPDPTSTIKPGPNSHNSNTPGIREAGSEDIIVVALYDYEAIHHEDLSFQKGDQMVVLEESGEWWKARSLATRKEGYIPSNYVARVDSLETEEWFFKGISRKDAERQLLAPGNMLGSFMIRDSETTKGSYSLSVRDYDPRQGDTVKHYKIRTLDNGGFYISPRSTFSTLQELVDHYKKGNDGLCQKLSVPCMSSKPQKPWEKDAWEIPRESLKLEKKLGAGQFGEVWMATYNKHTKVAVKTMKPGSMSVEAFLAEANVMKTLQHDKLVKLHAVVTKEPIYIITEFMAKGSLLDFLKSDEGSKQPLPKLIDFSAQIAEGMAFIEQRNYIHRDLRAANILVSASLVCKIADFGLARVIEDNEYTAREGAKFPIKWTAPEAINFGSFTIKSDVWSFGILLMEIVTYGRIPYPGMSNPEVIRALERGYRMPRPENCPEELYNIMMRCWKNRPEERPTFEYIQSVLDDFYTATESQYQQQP
The target in assay [7] is T2, Interleukin-1 receptor-associated kinase 4 (Homo sapiens) (UniProt Q9NWZ3).
T2 sequence (whole entry): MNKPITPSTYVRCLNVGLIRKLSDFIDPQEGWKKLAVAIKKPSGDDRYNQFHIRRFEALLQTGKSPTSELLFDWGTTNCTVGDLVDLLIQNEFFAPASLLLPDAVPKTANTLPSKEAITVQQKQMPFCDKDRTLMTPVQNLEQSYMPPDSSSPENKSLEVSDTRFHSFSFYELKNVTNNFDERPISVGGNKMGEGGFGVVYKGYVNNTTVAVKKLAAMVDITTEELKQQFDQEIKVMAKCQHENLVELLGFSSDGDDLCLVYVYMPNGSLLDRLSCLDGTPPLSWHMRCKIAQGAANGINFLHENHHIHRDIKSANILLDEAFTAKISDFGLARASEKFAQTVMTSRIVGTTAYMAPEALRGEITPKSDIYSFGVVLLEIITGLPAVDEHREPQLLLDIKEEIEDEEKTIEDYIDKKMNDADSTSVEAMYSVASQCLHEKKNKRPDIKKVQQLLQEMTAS
Kind of assay: Inhibition of human IRAK4 catalytic domain expressed in baculovirus assessed as substrate phosphorylation using fluorescence-labelled peptides as substrate at 9 uM after 90 mins by microfluidic peptide phosphorylation assay.

The target in assay [8] is Calcium/calmodulin-dependent protein kinase type II subunit beta (Homo sapiens) (UniProt Q13554). Kind of assay: Inhibition of human CAMK2 beta catalytic domain expressed in baculovirus assessed as substrate phosphorylation using fluorescence-labelled peptides as substrate at 8 uM after 90 mins by microfluidic peptide phosphorylation assay.
Sequence of Calcium/calmodulin-dependent protein kinase type II subunit beta (Homo sapiens) (Q13554 whole entry, the tested form may be a part): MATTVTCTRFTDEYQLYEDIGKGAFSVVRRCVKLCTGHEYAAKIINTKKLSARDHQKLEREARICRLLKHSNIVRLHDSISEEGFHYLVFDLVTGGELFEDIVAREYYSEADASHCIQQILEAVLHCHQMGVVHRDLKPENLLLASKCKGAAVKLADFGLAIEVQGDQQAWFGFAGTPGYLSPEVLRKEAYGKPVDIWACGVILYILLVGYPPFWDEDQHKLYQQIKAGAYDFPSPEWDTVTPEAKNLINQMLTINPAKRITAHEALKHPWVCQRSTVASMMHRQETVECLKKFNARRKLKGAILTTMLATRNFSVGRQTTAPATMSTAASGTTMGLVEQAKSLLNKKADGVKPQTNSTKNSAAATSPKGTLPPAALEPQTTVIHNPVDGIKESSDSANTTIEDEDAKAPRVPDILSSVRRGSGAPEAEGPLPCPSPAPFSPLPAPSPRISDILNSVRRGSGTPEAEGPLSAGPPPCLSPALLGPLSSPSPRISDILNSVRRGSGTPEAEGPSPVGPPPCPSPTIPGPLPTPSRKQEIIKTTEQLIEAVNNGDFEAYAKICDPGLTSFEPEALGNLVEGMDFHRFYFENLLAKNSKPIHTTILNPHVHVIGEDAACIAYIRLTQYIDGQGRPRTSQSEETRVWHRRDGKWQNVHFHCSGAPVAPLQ
In assay [9] the target is Fibroblast growth factor receptor 2 (Homo sapiens) (UniProt P21802). Kind of assay: Inhibition of human FGFR2 catalytic domain expressed in baculovirus assessed as substrate phosphorylation using fluorescence-labelled peptides as substrate at 70 uM after 90 mins by microfluidic peptide phosphorylation assay.
Assay [10] concerns the target Protein kinase C eta type (Homo sapiens) (UniProt P24723). Kind of assay: Inhibition of human truncated PKC eta expressed in baculovirus assessed as substrate phosphorylation using fluorescence-labelled peptides as substrate at […] after 90 mins by microfluidic peptide phosphorylation assay.
In assay [11] the target is T3, Serine/threonine-protein kinase BRSK1 (Homo sapiens) (UniProt Q8TDC3).
T3 sequence (whole entry): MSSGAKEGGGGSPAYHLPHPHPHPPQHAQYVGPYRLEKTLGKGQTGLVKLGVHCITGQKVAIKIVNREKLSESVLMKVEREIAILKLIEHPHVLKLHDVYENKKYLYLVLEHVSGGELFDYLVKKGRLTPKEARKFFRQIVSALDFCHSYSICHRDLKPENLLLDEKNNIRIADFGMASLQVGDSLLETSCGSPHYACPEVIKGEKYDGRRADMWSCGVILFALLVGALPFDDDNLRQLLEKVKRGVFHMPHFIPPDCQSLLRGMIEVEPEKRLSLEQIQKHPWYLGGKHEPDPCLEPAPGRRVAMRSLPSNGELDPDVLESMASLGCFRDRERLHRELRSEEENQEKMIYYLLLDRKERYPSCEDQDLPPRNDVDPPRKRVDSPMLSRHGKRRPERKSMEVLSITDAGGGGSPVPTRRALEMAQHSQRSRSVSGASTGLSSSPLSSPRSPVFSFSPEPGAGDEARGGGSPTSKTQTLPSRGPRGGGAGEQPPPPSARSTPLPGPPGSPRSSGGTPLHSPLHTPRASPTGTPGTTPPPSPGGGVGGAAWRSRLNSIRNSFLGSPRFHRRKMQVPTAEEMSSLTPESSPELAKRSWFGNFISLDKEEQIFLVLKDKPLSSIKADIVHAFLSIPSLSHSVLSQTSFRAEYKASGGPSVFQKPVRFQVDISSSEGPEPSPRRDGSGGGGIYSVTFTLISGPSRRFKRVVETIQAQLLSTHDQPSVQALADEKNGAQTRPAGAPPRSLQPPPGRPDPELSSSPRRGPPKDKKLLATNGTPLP
Kind of assay: Inhibition of human full length BRSK1 expressed in baculovirus assessed as substrate phosphorylation using fluorescence-labelled peptides as substrate at 420 uM after 90 mins by microfluidic peptide phosphorylation assay.

Sequence of Protein kinase C eta type (Homo sapiens) (P24723 whole entry, the tested form may be a part): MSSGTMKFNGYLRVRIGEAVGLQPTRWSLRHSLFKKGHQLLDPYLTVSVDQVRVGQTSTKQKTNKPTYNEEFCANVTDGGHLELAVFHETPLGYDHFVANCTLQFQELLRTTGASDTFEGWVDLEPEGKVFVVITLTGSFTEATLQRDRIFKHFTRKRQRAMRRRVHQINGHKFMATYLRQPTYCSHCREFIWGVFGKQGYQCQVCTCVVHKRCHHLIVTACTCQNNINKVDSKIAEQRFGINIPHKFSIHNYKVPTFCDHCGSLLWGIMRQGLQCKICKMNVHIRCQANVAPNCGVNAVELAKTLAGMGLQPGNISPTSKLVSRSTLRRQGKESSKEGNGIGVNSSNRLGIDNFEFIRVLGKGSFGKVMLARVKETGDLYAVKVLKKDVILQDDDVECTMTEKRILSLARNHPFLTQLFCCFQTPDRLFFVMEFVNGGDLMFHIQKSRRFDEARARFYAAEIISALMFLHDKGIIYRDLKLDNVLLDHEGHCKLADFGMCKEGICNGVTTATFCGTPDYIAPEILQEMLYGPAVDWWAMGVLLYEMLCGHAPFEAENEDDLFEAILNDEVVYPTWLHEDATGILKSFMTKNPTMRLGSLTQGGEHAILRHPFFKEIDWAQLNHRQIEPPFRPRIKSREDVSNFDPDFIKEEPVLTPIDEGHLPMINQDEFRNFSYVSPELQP

With `NC1CCN(c2ncnc3[nH]ccc23)CC1`, the inhibition in assay [1] is 1.5%; in assay [2], 0%.
As to `C[C@H](CN(C)C)Oc1nc(Nc2cc3cccc(Cl)c3cn2)cnc1C#N`, the inhibition stood at 28.5% in assay [3] and 0% in [4].
As for `Clc1ccc(C2(c3ccc(-c4ncnc5[nH]cnc45)cc3)CCNCC2)cc1`, the inhibition in assay [5] is 6%.
Take `NC1(Cc2ccc(Cl)cc2)CCN(c2ncnc3[nH]ccc23)CC1`: the inhibition in assay [6] was 7%.
On to `NCC1CN(c2ncnc3[nH]c4cnccc4c23)CCO1` (stereo unspecified), for which the inhibition in assay [7] is 56.5%.
For `NCC1CCN(c2ncnc3[nH]ccc23)CC1`, the inhibition in assay [8] worked out at 81%.
Take `CNCc1ccc(-c2ncnc3[nH]cnc23)cc1`: in assay [9], the inhibition amounted to 27%.
As for `COC(=O)c1cnc(Nc2cnc(C#N)cn2)cc1NCC1CCNCC1`, the inhibition in [10] was found to be 1%.
`c1nc(N2CCOCC2)c2nc[nH]c2n1`: the inhibition in assay [11] was found to be 51.5%.

The inhibition is the change of the read-out against control, counted positive when it falls.
